From ChEMBL document CHEMBL4308870, “Discovery and SAR studies of novel 2-anilinopyrimidine-based selective inhibitors against triple-negative breast cancer cell line MDA-MB-468” (2019)

What was measured:
Type in all cases: functional
[1] = system: MCF7; experiment: cells; details: Homo sapiens, MCF7, 48 h
Description: Growth inhibition of human MCF7 cells after 48 hrs by MTT assay

[2] = system: MDA-MB-468; experiment: Cytotoxicity against EGFR over-expressing human MDA-MB-468 cells assessed as cell viability at 10 uM after 48 hrs by MTT assay relative to control; details: MDA-MB-468, 48 h, read-out: Activity
[3] = system: MCF7; experiment: Cytotoxicity against human MCF7 cells assessed as cell viability at 10 uM after 48 hrs by MTT assay relative to control; details: MCF7, 48 h, read-out: Activity
[4] = Selectivity index, ratio of GI50 for human MCF7 cells to GI50 for EGFR over-expressing human MDA-MB-468 cells
[5] = system: MDA-MB-468; experiment: cells; details: Homo sapiens, MDA-MB-468, 48 h
Description: Growth inhibition of EGFR over-expressing human MDA-MB-468 cells after 48 hrs by MTT assay

Row | GI50 [1] | GI50 [5] | SMILES | viability at 10 µM [2] | viability at 10 µM [3] | RatioGI50 [4]
1 | > 30 µM | 6.9 µM | CCN(CC)CCCOc1ccc(Nc2nccc(N3CCC(C)CC3)n2)cc1 | 16.9% | 93.2% | >4.3
2 |  |  | CN1CCN(c2ccnc(Nc3ccc(OCCCN4CCSCC4)cc3)n2)CC1 | 56.5% | 79.8% | 
3 | 27.3 µM | 7.6 µM | CCN(CC)c1ccnc(Nc2ccc(OCCCN3CCSCC3)cc2)n1 | 36% | 91.9% | 3.6
4 |  |  | CCN(CC)CCCOc1ccc(Nc2nccc(N3CCOCC3)n2)cc1 | 79.4% | 66.5% | 
5 |  |  | c1cc(N2CCCC2)nc(Nc2ccc(OCCCN3CCSCC3)cc2)n1 | 78.3% | 84.7% | 
6 |  |  | c1cc(N2CCOCC2)nc(Nc2ccc(OCCCN3CCOCC3)cc2)n1 | 84.5% | 83.2% | 
7 |  |  | ClC1CCN(c2ccnc(Nc3ccc(OCCCN4CCOCC4)cc3)n2)CC1 | 61.6% | 93.3% | 
8 |  |  | c1cc(N2CCCC2)nc(Nc2ccc(OCCCN3CCOCC3)cc2)n1 | 77.1% | 89% | 
9 | 18.3 µM | 11.4 µM | CCN(CC)c1ccnc(Nc2ccc(OCCCN3CCCCC3)cc2)n1 | 53.1% | 69.7% | 1.6
10 |  |  | c1cc(N2CCSCC2)nc(Nc2ccc(OCCCN3CCOCC3)cc2)n1 | 73.4% | 86.1% | 
11 | > 30 µM | 16.3 µM | CC1CCN(c2ccnc(Nc3ccc(OCCCN4CCOCC4)cc3)n2)CC1 | 51.3% | 71.8% | >1.8
12 |  |  | c1cc(N2CCCC2)nc(Nc2ccc(OCCCN3CCCCC3)cc2)n1 | 58.1% | 66.1% | 
13 |  |  | COc1cc2ncnc(Nc3ccc(F)c(Cl)c3)c2cc1OCCCN1CCOCC1 [GEFITINIB] | 60.3% | 70.3% | 
14 |  |  | CCN(CC)c1ccnc(Nc2ccc(OCCCN3CCOCC3)cc2)n1 | 69.7% | 94.9% | 
15 |  |  | c1cc(N2CCOCC2)nc(Nc2ccc(OCCCN3CCCCC3)cc2)n1 | 86.8% | 95.7% | 
16 |  |  | CN1CCN(c2ccnc(Nc3ccc(OCCCN4CCCCC4)cc3)n2)CC1 | 71.7% | 76.9% | 

Row | GI50 [1] | GI50 [5] | SMILES | viability at 10 µM [2] | viability at 10 µM [3] | RatioGI50 [4]
17 |  |  | ClC1CCN(c2ccnc(Nc3ccc(OCCCN4CCSCC4)cc3)n2)CC1 | 62.7% | 87.7% | 
18 | > 30 µM | 18.3 µM | c1cc(N2CCCCC2)nc(Nc2ccc(OCCCN3CCOCC3)cc2)n1 | 55.2% | 61.8% | 
19 |  |  | CCN(CC)CCCOc1ccc(Nc2nccc(N3CCSCC3)n2)cc1 | 88% | 86.4% | 
20 |  |  | CN1CCN(c2ccnc(Nc3ccc(OCCCN4CCOCC4)cc3)n2)CC1 | 80.7% | 89.6% | 
21 | > 30 µM | 11.5 µM | ClC1CCN(c2ccnc(Nc3ccc(OCCCN4CCCCC4)cc3)n2)CC1 | 52.1% | 87.1% | >2.6
22 |  |  | c1cc(N2CCSCC2)nc(Nc2ccc(OCCCN3CCSCC3)cc2)n1 | 65% | 77.8% | 
23 | > 30 µM | 9.2 µM | c1cc(N2CCCCC2)nc(Nc2ccc(OCCCN3CCCCC3)cc2)n1 | 45.1% | 86.7% | >3.3
24 |  |  | CCN(CC)CCCOc1ccc(Nc2nccc(N3CCCC3)n2)cc1 | 69.7% | 78.5% | 
25 | 28.1 µM | 6.4 µM | CC1CCN(c2ccnc(Nc3ccc(OCCCN4CCCCC4)cc3)n2)CC1 | 21.3% | 73.7% | 4.4
26 |  |  | CCN(CC)CCCOc1ccc(Nc2nccc(N3CCCCC3)n2)cc1 | 62% | 95.4% | 
27 |  |  | CCN(CC)CCCOc1ccc(Nc2nccc(N3CCN(C)CC3)n2)cc1 | 64.6% | 67% | 
28 |  |  | c1cc(N2CCSCC2)nc(Nc2ccc(OCCCN3CCCCC3)cc2)n1 | 78.1% | 60% | 
29 |  |  | c1cc(N2CCOCC2)nc(Nc2ccc(OCCCN3CCSCC3)cc2)n1 | 57.4% | 67.9% | 
30 |  |  | c1cc(N2CCCCC2)nc(Nc2ccc(OCCCN3CCSCC3)cc2)n1 | 71.8% | 72.9% | 
31 |  |  | CC1CCN(c2ccnc(Nc3ccc(OCCCN4CCSCC4)cc3)n2)CC1 | 61.3% | 79.5% | 
